Activity calls are given as the source filed them. The rule behind the calls is not given here.
What was measured:
[1] = tested on: S. cerevisiae wild-type background strain growth inhibition; assay: growth inhibition of vps1Δ apl2Δ yeast, dose response, post-Golgi transport modulator project, S. cerevisiae, background strain comparison (AID 788); settings: S. cerevisiae vps1Δ apl2Δ growth inhibition, dose response; measured here: wild-type background strain growth
[2] = tested on: S. cerevisiae vps1Δ apl2Δ growth inhibition, dose response; assay: as above

Row | Compound | IC50 [1] [µM] | IC50 [2]
1 | COc1ccc(C2C3=C(CCCC3=O)Nc3nc(-c4cc(OC)c(OC)c(OC)c4)nn32)cc1OC (configuration not stated) | > 10 | > 10 µM (inactive)
2 | O=[N+]([O-])c1cc(C(F)(F)F)ccc1N/N=C/c1cc2ccccc2nc1Cl | > 10 | > 10 µM (inactive)
3 | O=C(NCc1ccc2c(c1)OCO2)c1ccc(-n2cnnn2)cc1 | > 10 | > 10 µM (inactive)
4 | Cc1cc([N+](=O)[O-])c(-c2ccc(/C=N/n3cnnc3)o2)cc1Cl | 0.134 | 0.39 µM (inactive)
5 | CCN1CCN(c2c(Cl)cccc2NC(=O)c2ccc(Br)o2)CC1 | > 10 | > 10 µM (inactive)
6 | CCOC(=O)c1ccc(NC(=O)c2cn(-c3ccccc3)nc2-c2ccncc2)cc1 | 11.5 | 19.1 µM (inactive)
7 | COc1ccc(Nc2nc(N)nc(CSc3nnc(N)s3)n2)cc1 | > 10 | > 10 µM (inactive)
8 | CC(C)OC(=O)CSc1nnc(-c2ccc(Cl)cc2)n1N | > 10 | > 10 µM (inactive)
9 | Cc1ccn2cc(-c3nonc3C)cc2c1 | > 10 | > 10 µM (inactive)
10 | COc1ccccc1N1CCN(CC(O)c2ccc3cc[nH]c3c2)CC1 (configuration not stated) | > 10 | > 10 µM (inactive)
11 | O=C(NCCSCc1ccc(Cl)cc1Cl)c1ccc(CN2CCOCC2)cc1 | > 10 | 13.5 µM
12 | CCCc1cc(NCCCCO)n2c(nc3ccccc32)c1C#N | > 10 | > 10 µM (inactive)
13 | COc1ccc(N2CCN(C(=O)CCNS(=O)(=O)c3ccc(Br)s3)CC2)cc1 | > 10 | > 10 µM (inactive)
14 | O=C(c1ccc(Cl)cc1Cl)N1CCC(c2nc3c(nnn3Cc3ccco3)c(=O)[nH]2)CC1 | > 10 | > 10 µM (inactive)
15 | CCOC(=O)C1=C(CSc2nc(-c3ccccc3)ccc2C#N)OC(N)=C(C#N)C1c1cccnc1 (configuration not stated) | > 10 | > 10 µM (inactive)
16 | O=C(O)Cn1c(SCCOc2ccccc2F)nc2ccccc21 | > 10 | > 10 µM (inactive)
17 | CCC(C)(C)n1nnnc1C(c1cc2cc3c(cc2[nH]c1=O)OCO3)N1CCN(C)CC1 (configuration not stated) | > 10 | > 10 µM (inactive)
18 | Cc1ccc(N2CCN(S(=O)(=O)N3CCCCCC3)CC2)cc1Cl | > 10 | > 10 µM (inactive)
19 | COc1ccc2oc(=O)c(-c3nnc(NCc4ccco4)s3)cc2c1 | > 10 | > 10 µM (inactive)
20 | O=C1OCC(CO)(CO)N=C1NNc1ccc(Cl)c(Cl)c1 | 3.35 | 2.85 µM
21 | O=C(Nc1nnc(-c2ccc3c(c2)CCCC3)o1)c1ccc(Cl)cc1Cl | 3.46 | 6.32 µM (inactive)

Row | Compound | IC50 [1] [µM] | IC50 [2]
22 | N#CC1=C(N)C(C#N)(C#N)C(c2cccnc2)C2CC(c3ccccc3)CC=C12 (configuration not stated) | 2.97 | 2.89 µM
23 | Nc1cc(N)c(OCC(F)(F)F)cc1OCC(F)(F)F | > 10 | > 10 µM (inactive)
24 | Cc1ccc(S(=O)(=O)N2CC3CC(C2)c2cccc(=O)n2C3)cc1 (configuration not stated) | > 10 | > 10 µM (inactive)
25 | CC1CC(C)CN(CCOc2ccc(Cl)cc2Cl)C1 (configuration not stated) | > 10 | 6.68 µM
26 | O=C(c1ccco1)N1CCN(c2ncnc3c2[nH]c2ccccc23)CC1 | > 10 | > 10 µM (inactive)
27 | COc1ccc(C2=NC(C(F)(F)F)(C(F)(F)F)c3c(n(C)c(=O)n(C)c3=O)N2)cc1 | > 10 | > 10 µM (inactive)
28 | CCCCCOc1ccc(CN2CCOCC2)cc1Cl | > 10 | 3.92 µM
29 | CCCOc1ccccc1N/C(=N/c1nc(C)cc(C)n1)NC(=O)COc1ccc(OC)cc1 | > 10 | > 10 µM (inactive)
30 | CCCC(=O)N1CCN(c2ccc(NC(=O)c3cc4ccccc4o3)cc2Cl)CC1 | 19.2 | 20.8 µM (inactive)
31 | O=C1c2cccc3c([N+](=O)[O-])ccc(c23)C(=O)N1c1ccc(Cl)cn1 | 6.08 | 18 µM (inactive)
32 | c1ccc(COc2ccc(CN3CCN(c4ccccn4)CC3)cc2)cc1 | > 10 | > 10 µM (inactive)
33 | O=C1c2ccccc2C(=O)c2c1oc(C(F)(F)F)c2C(=O)c1ccccc1 | 2.2 | 2.92 µM (inactive)
34 | O=C(Nc1nnc(C2CC2)o1)c1ccc(S(=O)(=O)N2CCCc3ccccc32)cc1 | 3.17 | > 10 µM (inactive)
35 | O=C(CCC(=O)OCC(=O)c1ccc(F)cc1)NC1CCCCC1 | > 10 | > 10 µM (inactive)
36 | CCc1cc2c(=O)c(Oc3ccccc3F)c(C)oc2c(CN(C)C)c1O | > 10 | > 10 µM (inactive)
37 | O=C(NCC(=O)N(c1cccnc1)C(C(=O)NCc1ccco1)c1ccccc1)c1ccco1 (configuration not stated) | > 10 | > 10 µM (inactive)
38 | Cc1ccc(OCC(O)CN2CCN(Cc3ccc4c(c3)OCO4)CC2)c(C)c1 (configuration not stated) | > 10 | 2.35 µM
39 | CCOc1ccc(-c2[nH]ncc2Oc2ccccc2OCC)c(O)c1 | 16 | 7.98 µM
40 | COc1cc2[nH]c(=S)n(CCCN3CCOCC3)c(=O)c2cc1OC | > 10 | > 10 µM (inactive)
41 | CCCCCCCCNc1ncnc2ccccc12 | 14.8 | > 10 µM (inactive)
